Measured values reported in patent US7566712B2, “Biaryl piperazinyl-pyridine analogues” (Neurogen Corporation, priority 2003, dated 2009).

Biological target: T1, human capsaicin receptor (Homo sapiens, UniProt Q8NER1)
T1 construct: pBK-CMV expression construct encoding the full length human capsaicin receptor; expressed in transfected cells
Assay: Calcium mobilization assay, determination of antagonist activity (Example 6)
Assay type: cell-based
Conditions: Table II; IC50 determined as described in Example 6
Procedure, shortened: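 Antagonism measured as inhibition of capsaicin-evoked (final concentration = EC50, from an 8-point 1 nM–3 μM curve) Fluo-3 calcium signal in stable hVR1-HEK293 cells. Test compounds at 1–5 μM final, 0.5–6 h dark preincubation at room temperature. IC50 = concentration giving 50% reduction versus agonist-only response.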

T1 sequence (Q8NER1 whole entry): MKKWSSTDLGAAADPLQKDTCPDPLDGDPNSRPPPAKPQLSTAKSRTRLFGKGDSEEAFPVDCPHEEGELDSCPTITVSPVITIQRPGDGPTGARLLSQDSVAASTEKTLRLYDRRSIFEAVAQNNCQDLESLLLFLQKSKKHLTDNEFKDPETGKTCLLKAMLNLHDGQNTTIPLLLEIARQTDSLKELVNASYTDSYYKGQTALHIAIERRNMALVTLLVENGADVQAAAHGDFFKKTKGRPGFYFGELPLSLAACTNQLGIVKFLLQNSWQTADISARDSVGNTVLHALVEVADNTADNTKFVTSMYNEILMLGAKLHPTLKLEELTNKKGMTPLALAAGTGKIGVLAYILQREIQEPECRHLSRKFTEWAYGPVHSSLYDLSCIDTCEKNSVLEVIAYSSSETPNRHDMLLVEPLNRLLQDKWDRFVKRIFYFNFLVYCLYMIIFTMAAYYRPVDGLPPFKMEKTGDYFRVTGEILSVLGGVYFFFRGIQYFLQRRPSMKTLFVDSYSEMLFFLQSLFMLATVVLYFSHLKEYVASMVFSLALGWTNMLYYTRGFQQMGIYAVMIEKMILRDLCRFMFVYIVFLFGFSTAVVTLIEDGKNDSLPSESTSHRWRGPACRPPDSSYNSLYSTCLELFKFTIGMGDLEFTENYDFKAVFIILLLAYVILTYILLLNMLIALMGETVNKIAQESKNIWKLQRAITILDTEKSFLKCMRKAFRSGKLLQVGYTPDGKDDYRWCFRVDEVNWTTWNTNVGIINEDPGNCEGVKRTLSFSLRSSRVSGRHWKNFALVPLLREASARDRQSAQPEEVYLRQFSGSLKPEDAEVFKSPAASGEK

SMILES	IC50
C[C@@H]1CN(c2ncccc2C(F)(F)F)CCN1c1cc(-c2ccc3ccccc3c2)nc(N2CCOCC2)n1 [Example 491, 4-[4-{(2R)-2-methyl-4-[3-(trifluoromethyl)pyridin-2-yl]piperazin-1-yl}-6-(2-naphthyl)pyrimidin-2-yl]morpholine]	≤ 1000 nM

Same assay, conditions: Table II; IC50 determined as described in Example 6 (antagonist activity, calcium mobilization)

SMILES	IC50
Cc1ccc(-c2cc(N3CCN(c4nccnc4Cl)C[C@H]3C)nc(N3CCOCC3)n2)cc1F [Example 993, 4-[4-[(2R)-4-(3-chloropyrazin-2-yl)-2-methylpiperazin-1-yl]-6-(3-fluoro-4-methylphenyl)pyrimidin-2-yl]morpholine]	≤ 1000 nM
C[C@H]1CN(c2ncccc2Cl)CCN1c1cc(-c2ccc(F)c(Cl)c2)nc(N2CCC[C@@H]2C)n1 [Example 985, 4-(3-chloro-4-fluorophenyl)-6-[(2S)-4-(3-chloropyridin-2-yl)-2-methylpiperazin-1-yl]-2-[(2S)-2-methylpyrrolidin-1-yl]pyrimidine]	≤ 1000 nM

Same assay, conditions: Table II; determined as described in Example 6 (antagonist activity); "*" = 1 micromolar or less

SMILES	IC50
CCCN1CC=C(c2nc(-c3ccc(F)c(Cl)c3)cc(N3CCN(c4ncccc4C(F)(F)F)CC3)n2)CC1 [Example 863, 4-(3-chloro-4-fluorophenyl)-2-(1-propyl-1,2,3,6-tetrahydropyridin-4-yl)-6-{4-[3-(trifluoromethyl)pyridin-2-yl]piperazin-1-yl}pyrimidine]	≤ 1000 nM
CCN(CC)C1CN(c2nc(-c3ccc(F)c(Cl)c3)cc(N3CCN(c4ncccc4C(F)(F)F)CC3)n2)C1 [Example 790, 1-(4-(3-chloro-4-fluorophenyl)-6-{4-[3-(trifluoromethyl)pyridin-2-yl]piperazin-1-yl}pyrimidin-2-yl)-N,N-diethylazetidin-3-amine]	≤ 1000 nM
CC1CCCN1c1nc(-c2ccc(F)c(F)c2)cc(N2CCN(c3ncccc3Cl)C[C@@H]2C)n1 (stereo partly drawn) [Example 922, 4-[(2S)-4-(3-chloropyridin-2-yl)-2-methylpiperazin-1-yl]-6-(3,4-difluorophenyl)-2-(2-methylpyrrolidin-1-yl)pyrimidine]	≤ 1000 nM
CN(C)CCC(O)c1nc(-c2ccc(F)c(F)c2)cc(N2CCN(c3ncccc3C(F)(F)F)CC2)n1 (stereo not shown) [Example 893]	≤ 1000 nM
C[C@@H]1CCCN1c1nc(-c2ccc(Cl)c(F)c2)cc(N2CCN(c3ncccc3Cl)C[C@@H]2C)n1 [Example 958, 4-(4-chloro-3-fluorophenyl)-6-[(2S)-4-(3-chloropyridin-2-yl)-2-methylpiperazin-1-yl]-2-[(2R)-2-methylpyrrolidin-1-yl]pyrimidine]	≤ 1000 nM
Fc1ccc(-c2cc(N3CCN(c4ncccc4C(F)(F)F)CC3)nc(N3CCN4CCC[C@H]4C3)n2)cc1Cl [Example 891, (8aS)-2-(4-(3-chloro-4-fluorophenyl)-6-{4-[3-(trifluoromethyl)pyridin-2-yl]piperazin-1-yl}pyrimidin-2-yl)octahydropyrrolo[1,2-a]pyrazine]	≤ 1000 nM

Same assay, conditions: determined as described in Example 6 (calcium mobilization, antagonist activity); Table II

SMILES	IC50
CC(C)Nc1nc(-c2ccc(F)c(Cl)c2)cc(N2CCN(c3ncccc3C(F)(F)F)CC2)n1 [Example 580, 4-(3-chloro-4-fluorophenyl)-N-isopropyl-6-{4-[3-(trifluoromethyl)pyridin-2-yl]piperazin-1-yl}pyrimidin-2-amine]	≤ 1000 nM
CC1CCCN1c1nc(-c2ccc(F)c(Cl)c2)cc(N2CCN(c3ncccc3Cl)C[C@H]2C)n1 (stereo partly drawn) [Example 732, 4-(3-chloro-4-fluorophenyl)-6-[(2R)-4-(3-chloropyridin-2-yl)-2-methylpiperazin-1-yl]-2-(2-methylpyrrolidin-1-yl)pyrimidine]	≤ 1000 nM
CCOc1cc(-c2cc(N3CCN(c4ncccc4C(F)(F)F)CC3)nc(N3CCOCC3)n2)ccn1 [Example 577, 4-(4-(2-ethoxypyridin-4-yl)-6-{4-[3-(trifluoromethyl)pyridin-2-yl]piperazin-1-yl}pyrimidin-2-yl)morpholine]	≤ 1000 nM
C[C@@H]1CN(c2ncccc2C(F)(F)F)CCN1c1cc(-c2ccc(F)c(Cl)c2)nc(N2CCCCC2)n1 [Example 765, 4-(3-chloro-4-fluorophenyl)-6-{(2R)-2-methyt-4-[3-(trifluoromethyl)pyridin-2-yl]piperazin-1-yl}-2-piperidin-1-ylpyrimidine]	≤ 1000 nM
